Experimental data published in PubChem BioAssay AID1919014 (Molecular Pharmacology Branch, DTP, NCI, 2023).
Values joined by “and” are separate entries in the source; they are usually repeats but may differ in a detail not shown here. Identical values can stand only once.

Tested on: NCI-H1341 complex spheroids, percent test/control
Assay: Anticancer human tumor NCI-H1341 cell line growth inhibition [AhR];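 also: spheroids exposed to agents for seven days before readout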
Details: for viability, T/C: stronger effect = lower value
Method in brief: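 Complex tumor spheroids co-cultured with HUVEC and human MSC stroma; AhR antagonists tested in combination with standard-of-care and investigational agents. Top concentration at or near clinical Cmax (else 10 microM), half-log dilutions; growth expressed as percent test/control.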

[1] = curve of first compound, second compound 0.1 µM
[2] = curve of first compound, second compound 0.316 µM
[3] = curve of first compound, second compound 1 µM
[4] = curve of first compound, second compound 3.16 µM
[5] = curve of first compound, second compound 10 µM
[6] = second compound 0.1 µM, first compound 0.0316 µM
[7] = second compound 0.1 µM, first compound 0.1 µM
[8] = second compound 0.1 µM, first compound 0.316 µM
[9] = second compound 0.1 µM, first compound 1 µM
[10] = second compound 0.1 µM, first compound 3.16 µM
[11] = second compound 0.1 µM, first compound 10 µM
[12] = second compound 0.316 µM, first compound 0.0316 µM
[13] = second compound 0.316 µM, first compound 0.1 µM
[14] = second compound 0.316 µM, first compound 0.316 µM
[15] = second compound 0.316 µM, first compound 1 µM
[16] = second compound 0.316 µM, first compound 3.16 µM
[17] = second compound 0.316 µM, first compound 10 µM
[18] = second compound 1 µM, first compound 0.0316 µM
[19] = second compound 1 µM, first compound 0.1 µM
[20] = second compound 1 µM, first compound 0.316 µM
[21] = second compound 1 µM, first compound 1 µM
[22] = second compound 1 µM, first compound 3.16 µM
[23] = second compound 1 µM, first compound 10 µM
[24] = second compound 3.16 µM, first compound 0.0316 µM
[25] = second compound 3.16 µM, first compound 0.1 µM
[26] = second compound 3.16 µM, first compound 0.316 µM
[27] = second compound 3.16 µM, first compound 1 µM
[28] = second compound 3.16 µM, first compound 3.16 µM
[29] = second compound 3.16 µM, first compound 10 µM
[30] = second compound 10 µM, first compound 0.0316 µM
[31] = second compound 10 µM, first compound 0.1 µM
[32] = second compound 10 µM, first compound 0.316 µM
[33] = second compound 10 µM, first compound 1 µM
[34] = second compound 10 µM, first compound 3.16 µM
[35] = second compound 10 µM, first compound 10 µM
[36] = second compound 0.1 µM, first compound 0.000949 µM
[37] = second compound 0.1 µM, first compound 0.003 µM
[38] = second compound 0.1 µM, first compound 0.00949 µM
[39] = second compound 0.1 µM, first compound 0.03 µM
[40] = second compound 0.1 µM, first compound 0.0949 µM
[41] = second compound 0.1 µM, first compound 0.3 µM
[42] = second compound 0.316 µM, first compound 0.000949 µM
[43] = second compound 0.316 µM, first compound 0.003 µM
[44] = second compound 0.316 µM, first compound 0.00949 µM
[45] = second compound 0.316 µM, first compound 0.03 µM
[46] = second compound 0.316 µM, first compound 0.0949 µM
[47] = second compound 0.316 µM, first compound 0.3 µM
[48] = second compound 1 µM, first compound 0.000949 µM
[49] = second compound 1 µM, first compound 0.003 µM
[50] = second compound 1 µM, first compound 0.00949 µM
[51] = second compound 1 µM, first compound 0.03 µM
[52] = second compound 1 µM, first compound 0.0949 µM
[53] = second compound 1 µM, first compound 0.3 µM
[54] = second compound 3.16 µM, first compound 0.000949 µM
[55] = second compound 3.16 µM, first compound 0.003 µM
[56] = second compound 3.16 µM, first compound 0.00949 µM
[57] = second compound 3.16 µM, first compound 0.03 µM
[58] = second compound 3.16 µM, first compound 0.0949 µM
[59] = second compound 3.16 µM, first compound 0.3 µM
[60] = second compound 10 µM, first compound 0.000949 µM
[61] = second compound 10 µM, first compound 0.003 µM
[62] = second compound 10 µM, first compound 0.00949 µM
[63] = second compound 10 µM, first compound 0.03 µM
[64] = second compound 10 µM, first compound 0.0949 µM
[65] = second compound 10 µM, first compound 0.3 µM

In the case of `CC(C)c1c(-c2ccccc2)nc2c(C#N)c[nH]n2c1=O` + Cc1cncc(-c2nc(NCCc3c[nH]c4ccccc34)c3ncn(C(C)C)c3n2)c1, the IC50 [1] is reported as > 10000 nM, the IC50 [2] is reported as > 10000 nM and the IC50 [3] is reported as > 10000 nM. For the same compound, the IC50 [4] was > 10000 nM, the IC50 [5] was < 31.6 nM and the viability, T/C [6] was 90.7%. It also gave a viability, T/C [7] of 83.7%, a viability, T/C [8] of 86.6% and a viability, T/C [9] of 81.3%. It also gave a viability, T/C [10] of 69.6%, a viability, T/C [11] of 58% and a viability, T/C [12] of 75.5%. The viability, T/C [13] was 87.2%, the viability, T/C [14] was 95.5% and the viability, T/C [15] was 75.1%. The viability, T/C [16] was 75.8%, the viability, T/C [17] was 72.5% and the viability, T/C [18] was 75.9%. For the same compound, the viability, T/C [19] was 78.6%, the viability, T/C [20] was 78.5% and the viability, T/C [21] was 75.3%. For the same compound, the viability, T/C [22] was 78.9%, the viability, T/C [23] was 68% and the viability, T/C [24] was 79.9%. For the same compound, the viability, T/C [25] was 73.6%, the viability, T/C [26] was 74.6% and the viability, T/C [27] was 67.6%. For the same compound, the viability, T/C [28] was 63.5%, the viability, T/C [29] was 67.4% and the viability, T/C [30] was 18%. For the same compound, the viability, T/C [31] was 20.1%, the viability, T/C [32] was 21% and the viability, T/C [33] was 20.2%. It also gave a viability, T/C [34] of 16.2% and a viability, T/C [35] of 19.5%.
`O=C(C=Cc1cccc(S(=O)(=O)Nc2ccccc2)c1)NO` + Cc1ccccc1N=Nc1ccc(NC(=O)c2ccnn2C)c(C)c1 gave an IC50 [1] of 568 nM, an IC50 [2] of 419 nM and an IC50 [3] of 457 nM. For the same compound, the IC50 [4] was 266 nM, the IC50 [5] was 338 nM and the viability, T/C [6] was 95.4%. The viability, T/C [7] was 95.6%, the viability, T/C [8] was 75.8% and the viability, T/C [9] was 24.8%. It also gave a viability, T/C [10] of 5.9%, a viability, T/C [11] of 0.79% and a viability, T/C [12] of 94.8%. It also gave a viability, T/C [13] of 91.9%, a viability, T/C [14] of 54.7% and a viability, T/C [15] of 26.2%. It also gave a viability, T/C [16] of 5.71%, a viability, T/C [17] of 0.82% and a viability, T/C [18] of 84.3%. For the same compound, the viability, T/C [19] was 94.1%, the viability, T/C [20] was 60.3% and the viability, T/C [21] was 23%. It also gave a viability, T/C [22] of 6.42%, a viability, T/C [23] of 0.59% and a viability, T/C [24] of 77.1%. The viability, T/C [25] was 62.2%, the viability, T/C [26] was 49.9% and the viability, T/C [27] was 25.4%. It also gave a viability, T/C [28] of 8.47%, a viability, T/C [29] of 0.58% and a viability, T/C [30] of 59.1%. For the same compound, the viability, T/C [31] was 55%, the viability, T/C [32] was 53.5% and the viability, T/C [33] was 29%. It also gave a viability, T/C [34] of 10.8% and a viability, T/C [35] of 1.49%.
`CCc1c2c(nc3ccc(O)cc13)-c1cc3c(c(=O)n1C2)COC(=O)[C@]3(O)CC` + CC(CO)NC(=O)c1cc(-c2ccc(Cl)cc2)nn(-c2cnn(C)c2)c1=O gave an IC50 [1] of 12.3 nM, an IC50 [2] of 7.9 nM and an IC50 [3] of 9.6 nM. It also gave an IC50 [4] of 5.17 nM, an IC50 [5] of 3.47 nM and a viability, T/C [36] of 67.7%. It also gave a viability, T/C [37] of 74%, a viability, T/C [38] of 46.6% and a viability, T/C [39] of 38.8%. The viability, T/C [40] was 30.7%, the viability, T/C [41] was 16.9% and the viability, T/C [42] was 71.8%. The viability, T/C [43] was 61.8%, the viability, T/C [44] was 48.1% and the viability, T/C [45] was 33.4%. It also gave a viability, T/C [46] of 26.5%, a viability, T/C [47] of 16% and a viability, T/C [48] of 62.8%. It also gave a viability, T/C [49] of 67.6%, a viability, T/C [50] of 48.2% and a viability, T/C [51] of 31.4%. The viability, T/C [52] was 29.5%, the viability, T/C [53] was 17.4% and the viability, T/C [54] was 73%. For the same compound, the viability, T/C [55] was 53.2%, the viability, T/C [56] was 39% and the viability, T/C [57] was 37.4%. The viability, T/C [58] was 26.5%, the viability, T/C [59] was 14.1% and the viability, T/C [60] was 61%. The viability, T/C [61] was 47.9%, the viability, T/C [62] was 43.8% and the viability, T/C [63] was 32.4%. For the same compound, the viability, T/C [64] was 23.4% and the viability, T/C [65] was 10.8%.
For `CCc1c2c(nc3ccc(O)cc13)-c1cc3c(c(=O)n1C2)COC(=O)[C@]3(O)CC` + Cc1cncc(-c2nc(NCCc3c[nH]c4ccccc34)c3ncn(C(C)C)c3n2)c1, the IC50 [1] was 7.13 nM, the IC50 [2] was 3.57 nM and the IC50 [3] was < 0.949 nM. The IC50 [4] was < 0.949 nM, the IC50 [5] was < 0.949 nM and the viability, T/C [36] was 69.6%. The viability, T/C [37] was 65.8%, the viability, T/C [38] was 41.9% and the viability, T/C [39] was 31.9%. It also gave a viability, T/C [40] of 25.2%, a viability, T/C [41] of 11.9% and a viability, T/C [42] of 63.2%. The viability, T/C [43] was 55.8%, the viability, T/C [44] was 33.8% and the viability, T/C [45] was 31.8%. The viability, T/C [46] was 22.9%, the viability, T/C [47] was 10% and the viability, T/C [48] was 46.1%. It also gave a viability, T/C [49] of 45.6%, a viability, T/C [50] of 36.4% and a viability, T/C [51] of 31.7%. The viability, T/C [52] was 20.4%, the viability, T/C [53] was 8.02% and the viability, T/C [54] was 46%. For the same compound, the viability, T/C [55] was 38.2%, the viability, T/C [56] was 34.6% and the viability, T/C [57] was 26.3%. It also gave a viability, T/C [58] of 15.2%, a viability, T/C [59] of 5.83% and a viability, T/C [60] of 15.2%. The viability, T/C [61] was 13%, the viability, T/C [62] was 14.9% and the viability, T/C [63] was 8.23%. It also gave a viability, T/C [64] of 4.28% and a viability, T/C [65] of 1.78%.
With `COc1cccc2c1C(=O)c1c(O)c3c(c(O)c1C2=O)CC(O)(C(=O)CO)CC3OC1CC(N)C(O)C(C)O1` (configuration not stated) the viability, T/C (compound 0.0316 µM) was 49.4% and 58.5% and 51.1%, the viability, T/C (compound 0.1 µM) was 48.7% and 55.5% and 55.7% and the viability, T/C (compound 0.316 µM) was 35.4% and 44.5% and 30.1%. For the same compound, the viability, T/C (compound 1 µM) was 13.8% and 18.2% and 6.98%, the viability, T/C (compound 3.16 µM) was 0.92% and 1.68% and 0.74% and the viability, T/C (compound 10 µM) was 4.71% and 5.46% and 2.82%. The IC50 (curve of compound) was < 31.6 nM and 186 nM and 114 nM.
